Reference: US11331369B2, “Endoparasitic depsipeptides” (Zoetis Services LLC, priority 2017, dated 2022)

Test system: microfilariae of Dirofilaria immitis
Experiment: Dirofilaria immitis, Microfilaria (DiMF) In vitro Assay
Assay type: cell-based
Conditions: 72 h, read-out: DiMF Minimum Effective Dose (MED), approximately 72 hours incubation, microfilariae assessed for survival or paralysis

SMILES | minimal effective concentration
CCc1nccn1Cc1ccc(C[C@H]2OC(=O)[C@H](CC(C)C)N(C)C(=O)[C@@H](C)OC(=O)[C@H](CC(C)C)N(C)C(=O)[C@@H](Cc3ccc(Cn4ccnc4CC)cc3)OC(=O)[C@H](CC(C)C)N(C)C(=O)[C@@H](C)OC(=O)[C@H](CC(C)C)N(C)C2=O)cc1 [Example 6-4, (3S,6R,9S,12R,15S,18R,21S,24R)-6,18-bis[[4-[(2-ethylimidazol-1-yl)methyl]phenyl]methyl]-3,9,15,21-tetraisobutyl-4,10,12,16,22,24-hexamethyl-1,7,13,19-tetraoxa-4,10,16,22-tetrazacyclotetracosane-2,5,8,11,14,17,20,23-octaone] | 0.01 to 0.1 µM
Cc1cn(Cc2ccc(C[C@H]3OC(=O)[C@H](CC(C)C)N(C)C(=O)[C@@H](C)OC(=O)[C@H](CC(C)C)N(C)C(=O)[C@@H](Cc4ccc(Cn5cc(C)nc5C)cc4)OC(=O)[C@H](CC(C)C)N(C)C(=O)[C@@H](C)OC(=O)[C@H](CC(C)C)N(C)C3=O)cc2)c(C)n1 [Example 6-5, (3S,6R,9S,12R,15S,18R,21S,24R)-6,18-bis(4-((2,4-dimethyl-1H-imidazol-1-yl)methyl)benzyl)-3,9,15,21-tetraisobutyl-4,10,12,16,22,24-hexamethyl-1,7,13,19-tetraoxa-4,10,16,22-tetraazacyclotetracosan-2,5,8,11,14,17,20,23-octaone] | 0.01 to 0.1 µM
CC(C)C[C@H]1C(=O)O[C@H](Cc2ccc(Cn3ccnc3C(C)(C)C)cc2)C(=O)N(C)[C@@H](CC(C)C)C(=O)O[C@H](C)C(=O)N(C)[C@@H](CC(C)C)C(=O)O[C@H](Cc2ccc(Cn3ccnc3C(C)(C)C)cc2)C(=O)N(C)[C@@H](CC(C)C)C(=O)O[C@H](C)C(=O)N1C [Example 6-6, (3S,6R,9S,12R,15S,18R,21S,24R)-6,18-bis[[4-[(2-tert-butylimidazol-1-yl)methyl]phenyl]methyl]-3,9,15,21-tetraisobutyl-4,10,12,16,22,24-hexamethyl-1,7,13,19-tetraoxa-4,10,16,22-tetrazacyclotetracosane-2,5,8,11,14,17,20,23-octaone] | 0.01 to 0.1 µM
CC(C)C[C@H]1C(=O)O[C@H](Cc2ccc(Cn3ccnc3C(C)C)cc2)C(=O)N(C)[C@@H](CC(C)C)C(=O)O[C@H](C)C(=O)N(C)[C@@H](CC(C)C)C(=O)O[C@H](Cc2ccc(Cn3ccnc3C(C)C)cc2)C(=O)N(C)[C@@H](CC(C)C)C(=O)O[C@H](C)C(=O)N1C [Example 6-8, (3S,6R,9S,12R,15S,18R,21S,24R)-3,9,15,21-tetraisobutyl-6,18-bis(4-((2-isopropyl-1H-imidazol-1-yl)methyl)benzyl)-4,10,12,16,22,24-hexamethyl-1,7,13,19-tetraoxa-4,10,16,22-tetraazacyclotetracosan-2,5,8,11,14,17,20,23-octaone] | 0.01 to 0.1 µM
CC(C)C[C@H]1C(=O)O[C@H](Cc2ccc(Cn3ccnc3I)cc2)C(=O)N(C)[C@@H](CC(C)C)C(=O)O[C@H](C)C(=O)N(C)[C@@H](CC(C)C)C(=O)O[C@H](Cc2ccc(Cn3ccnc3I)cc2)C(=O)N(C)[C@@H](CC(C)C)C(=O)O[C@H](C)C(=O)N1C [Example 6-10, (3S,6R,9S,12R,15S,18R,21S,24R)-6,18-bis(4-((2-iodo-1H-imidazol-1-yl)methyl)benzyl)-3,9,15,21-tetraisobutyl-4,10,12,16,22,24-hexamethyl-1,7,13,19-tetraoxa-4,10,16,22-tetraazacyclotetracosan-2,5,8,11,14,17,20,23-octaone] | 0.01 to 0.1 µM
CC(C)C[C@H]1C(=O)O[C@H](Cc2ccc(Cn3ccnc3-c3ccccc3)cc2)C(=O)N(C)[C@@H](CC(C)C)C(=O)O[C@H](C)C(=O)N(C)[C@@H](CC(C)C)C(=O)O[C@H](Cc2ccc(Cn3ccnc3-c3ccccc3)cc2)C(=O)N(C)[C@@H](CC(C)C)C(=O)O[C@H](C)C(=O)N1C [Example 6-11, (3S,6R,9S,12R,15S,18R,21S,24R)-3,9,15,21-tetraisobutyl-4,6,10,16,18,22-hexamethyl-12,24-bis(4-((2-phenyl-1H-imidazol-1-yl)methyl)benzyl)-1,7,13,19-tetraoxa-4,10,16,22-tetraazacyclotetracosan-2,5,8,11,14,17,20,23-octaone] | 0.01 to 0.1 µM
Cc1cn(Cc2ccc(C[C@H]3OC(=O)[C@H](CC(C)C)N(C)C(=O)[C@@H](C)OC(=O)[C@H](CC(C)C)N(C)C(=O)[C@@H](Cc4ccc(Cn5cnc(C)c5)cc4)OC(=O)[C@H](CC(C)C)N(C)C(=O)[C@@H](C)OC(=O)[C@H](CC(C)C)N(C)C3=O)cc2)cn1 [Example 6-14, (3S,6R,9S,12R,15S,18R,21S,24R)-3,9,15,21-tetraisobutyl-4,6,10,16,18,22-hexamethyl-12,24-bis(4-((4-methyl-1H-imidazol-1-yl)methyl)benzyl)-1,7,13,19-tetraoxa-4,10,16,22-tetraazacyclotetracosan-2,5,8,11,14,17,20,23-octaone] | 0.01 to 0.1 µM
CC(C)C[C@H]1C(=O)O[C@H](Cc2ccc(Cn3ccnc3CO)cc2)C(=O)N(C)[C@@H](CC(C)C)C(=O)O[C@H](C)C(=O)N(C)[C@@H](CC(C)C)C(=O)O[C@H](Cc2ccc(Cn3ccnc3CO)cc2)C(=O)N(C)[C@@H](CC(C)C)C(=O)O[C@H](C)C(=O)N1C [Example 6-16, (3S,6R,9S,12R,15S,18R,21S,24R)-6,18-bis(4-((2-(hydroxymethyl)-1H-imidazol-1-yl)methyl)benzyl)-3,9,15,21-tetraisobutyl-4,10,12,16,22,24-hexamethyl-1,7,13,19-tetraoxa-4,10,16,22-tetraazacyclotetracosan-2,5,8,11,14,17,20,23-octaone] | 0.001 to 0.01 µM
CC(C)C[C@H]1C(=O)O[C@H](Cc2ccc(Cn3ccnc3-c3cncs3)cc2)C(=O)N(C)[C@@H](CC(C)C)C(=O)O[C@H](C)C(=O)N(C)[C@@H](CC(C)C)C(=O)O[C@H](Cc2ccc(Cn3ccnc3-c3cncs3)cc2)C(=O)N(C)[C@@H](CC(C)C)C(=O)O[C@H](C)C(=O)N1C [Example 6-18, (3S,6R,9S,12R,15S,18R,21S,24R)-3,9,15,21-tetraisobutyl-4,6,10,16,18,22-hexamethyl-12,24-bis(4-((2-(thiazol-5-yl)-1H-imidazol-1-yl)methyl)benzyl)-1,7,13,19-tetraoxa-4,10,16,22-tetraazacyclotetracosan-2,5,8,11,14,17,20,23-octaone] | 0.01 to 0.1 µM
COCc1nccn1Cc1ccc(C[C@H]2OC(=O)[C@H](CC(C)C)N(C)C(=O)[C@@H](C)OC(=O)[C@H](CC(C)C)N(C)C(=O)[C@@H](Cc3ccc(Cn4ccnc4COC)cc3)OC(=O)[C@H](CC(C)C)N(C)C(=O)[C@@H](C)OC(=O)[C@H](CC(C)C)N(C)C2=O)cc1 [Example 6-19, (3S,6R,9S,12R,15S,18R,21S,24R)-3,9,15,21-tetraisobutyl-6,18-bis(4-((2-(methoxymethyl)-1H-imidazol-1-yl)methyl)benzyl)-4,10,12,16,22,24-hexamethyl-1,7,13,19-tetraoxa-4,10,16,22-tetraazacyclotetracosan-2,5,8,11,14,17,20,23-octaone] | 0.001 to 0.01 µM
Cc1nccn1Cc1ccc(C[C@H]2OC(=O)[C@H](CC(C)C)N(C)C(=O)[C@@H](C)OC(=O)[C@H](CC(C)C)N(C)C(=O)[C@@H](Cc3cccc(Cn4ccnc4C)c3)OC(=O)[C@H](CC(C)C)N(C)C(=O)[C@@H](C)OC(=O)[C@H](CC(C)C)N(C)C2=O)cc1 [Example 7-1, (3S,6R,9S,12R,15S,18R,21S,24R)-3,9,15,21-tetraisobutyl-4,6,10,16,18,22-hexamethyl-12-[[3-[(2-methylimidazol-1-yl)methyl]phenyl]methyl]-24-[[4-[(2-methylimidazol-1-yl)methyl]phenyl]methyl]-1,7,13,19-tetraoxa-4,10,16,22-tetrazacyclotetracosane-2,5,8,11,14,17,20,23-octaone] | 0.01 to 0.1 µM
CC(C)C[C@H]1C(=O)O[C@H](Cc2cccc(Cn3ccnc3)c2)C(=O)N(C)[C@@H](CC(C)C)C(=O)O[C@H](C)C(=O)N(C)[C@@H](CC(C)C)C(=O)O[C@H](Cc2ccc(Cn3ccnc3)cc2)C(=O)N(C)[C@@H](CC(C)C)C(=O)O[C@H](C)C(=O)N1C [Example 7-2, (3S,6R,9S,12R,15S,18R,21S,24R)-6-(3-((1H-imidazol-1-yl)methyl)benzyl)-18-(4-((1H-imidazol-1-yl)methyl)benzyl)-3,9,15,21-tetraisobutyl-4,10,12,16,22,24-hexamethyl-1,7,13,19-tetraoxa-4,10,16,22-tetraazacyclotetracosan-2,5,8,11,14,17,20,23-octaone] | 0.01 to 0.1 µM
CCc1nccn1Cc1ccc(C[C@H]2OC(=O)[C@H](CC(C)C)N(C)C(=O)[C@@H](C)OC(=O)[C@H](CC(C)C)N(C)C(=O)[C@@H](Cc3cccc(Cn4ccnc4CC)c3)OC(=O)[C@H](CC(C)C)N(C)C(=O)[C@@H](C)OC(=O)[C@H](CC(C)C)N(C)C2=O)cc1 [Example 7-4, (3S,6R,9S,12R,15S,18R,21S,24R)-6-[[3-[(2-ethylimidazol-1-yl)methyl]phenyl]methyl]-18-[[4-[(2-ethylimidazol-1-yl)methyl]phenyl]methyl]-3,9,15,21-tetraisobutyl-4,10,12,16,22,24-hexamethyl-1,7,13,19-tetraoxa-4,10,16,22-tetrazacyclotetracosane-2,5,8,11,14,17,20,23-octaone] | 0.01 to 0.1 µM
CC(C)C[C@H]1C(=O)O[C@H](Cc2cccc(Cn3ccnc3C3CC3)c2)C(=O)N(C)[C@@H](CC(C)C)C(=O)O[C@H](C)C(=O)N(C)[C@@H](CC(C)C)C(=O)O[C@H](Cc2ccc(Cn3ccnc3C3CC3)cc2)C(=O)N(C)[C@@H](CC(C)C)C(=O)O[C@H](C)C(=O)N1C [Example 7-7, (3S,6R,9S,12R,15S,18R,21S,24R)-6-[[3-[(2-cyclopropylimidazol-1-yl)methyl]phenyl]methyl]-18-[[4-[(2-cyclopropylimidazol-1-yl)methyl]phenyl]methyl]-3,9,15,21-tetraisobutyl-4,10,12,16,22,24-hexamethyl-1,7,13,19-tetraoxa-4,10,16,22-tetrazacyclotetracosane-2,5,8,11,14,17,20,23-octaone] | 0.01 to 0.1 µM
